Assay results taken from patent US20230165873A1, “Methods of Use for Single Molecule Compounds Providing Multi-Target Inhibition to Treat Covid 19” (priority 2020, published 2023).
Read-outs that look alike come from different tables or passages of the source.

Experiments:
CDK4 cyclinD1 = CDK4 cyclinD1 (Homo sapiens, UniProt P11802); test: CDK4 cyclinD1 in vitro inhibition; type: biochemical
Method: (§1) The kinase or bromodomain inhibitory activity of a compound of the invention can be determined by routine methods known to the skilled artisan without undue experimentation, or by procuring relevant analysis by a commercial vendor offering such services. […] In vivo, PI3K inhibition can be determined from target tissue biopsies by standard tissue processing in which cells are disrupted and Western Blot analysis is performed to determine the presence or absence of pAKT (substrate of PI3K) relative to a control sample. PI3K inhibition assays and BTK inhibition assays are known in the art and can be procured commercially through vendors such as Reaction Biology (Malvern, PA). The activity of a compound of the invention as an inhibitor of a bromodomain-containing protein, such as a BET protein, including BRD2, BRD3, BRD4, and/or BRDT, or an isoform or mutant thereof, may be determined in vitro, in vivo, or in a cell line. In vitro assays include assays that determine inhibition of bromodomain-containing proteins. Alternatively, inhibitor binding may be determined by running a competition experiment where a provided compound is incubated with a bromodomain-containing protein, such as a BET protein bound to known ligands, labeled or unlabeled. In vitro bromodomain inhibition assays can be performed using Alpha Screen Technology (Perkin Elmer Life and Analytical Sciences, Shelton, CT). In vivo bromodomain inhibition can be determined indirectly by evaluating the amount of a protein whose gene transcription is influenced or controlled by the bromodomain protein, for example, MYCN protein transcription is controlled by BRD4 (J.E. Delmore et al., Cell 2011, 146, 904-917; A. Puissant, Cancer Discov. 2013, 3, 308-323).
(§2) IC50 inhibition data against the indicated targets were determined for compounds of the invention using standard in vitro assays (Tables 8 and 9).

PI3K delta = PI3K delta (Homo sapiens, UniProt O00329); test: PI3K delta in vitro inhibition; type: biochemical
Method: as §1, §2

CDK6 cyclinD1 = CDK6 cyclinD1 (Homo sapiens, UniProt Q00534); test: CDK6 cyclinD1 in vitro inhibition; type: biochemical
Method: as §1, §2

BRD4-1 = target: T1, BRD4-1 (Homo sapiens, UniProt O60885); test: BRD4-1 in vitro inhibition; type: binding
T1 construct: BRD4-1
Method: as §1

PI3K gamma = PI3K gamma (Homo sapiens, UniProt P48736); test: PI3K gamma in vitro inhibition; type: biochemical
Method: as §1, §2

Syk = Syk (Homo sapiens, UniProt P43405); test: Syk in vitro inhibition; type: biochemical
Method: as §1, §2

PI3K alpha = PI3K alpha (Homo sapiens, UniProt P42336); test: PI3K alpha in vitro inhibition; type: biochemical
Method: as §1

BRD4-2 = target: T2, BRD4-2 (Homo sapiens, UniProt O60885); test: BRD4-2 in vitro inhibition; type: binding
T2 construct: BRD4-2
Method: as §1

mTOR = mTOR (Homo sapiens, UniProt P42345); test: mTOR in vitro inhibition; type: biochemical
Method: as §1, §2

PI3K beta = PI3K beta (Homo sapiens, UniProt P42338); test: PI3K beta in vitro inhibition; type: biochemical
Method: as §1

SARS-CoV-2 [1] = test: SARS-CoV-2 viral load in culture supernatant (RT-QPCR), UNCN1T cells
SARS-CoV-2 [2] = test: microbe, parasite or virus in culture; type: cell-based; conditions: read-out: IC50 based on SARS-CoV-2 viral loads in culture supernatant
SARS-CoV-2 [3] = test: microbe, parasite or virus in culture; type: cell-based; conditions: for EC50: read-out: Median Effective Dose
SARS-CoV-2 [4] = test: Cytopathic effect (CPE), CellTiter-Glo, SARS-CoV-2 infected UNCN1T cells; conditions: read-out: IC50 based on dose response curve by cytopathic effect (CPE), 24 hrs post-infection
SARS-CoV-2 [5] = test: microbe, parasite or virus in culture; type: cell-based; conditions: read-out: IC50 based on dose response curve by cytopathic effect (CPE)
BTK = BTK (Homo sapiens, UniProt Q06187); test: BTK in vitro inhibition; type: biochemical
Method: as §1, §2

[6] = tested on: mice carrying the Fli1 deletion; test: Bleomycin-induced lung fibrosis in mice carrying the Fli1 deletion; type: in vivo; conditions: 50 mg/kg on day 9, 12, 15 after intra-tracheal bleomycin 0.4 mg/kg; sacrifice day 21
Text: Bleomycin-induced lung fibrosis is the most frequently used rodent model for lung fibrosis, and inflammatory and fibrotic events similar to those seen in human pulmonary fibrosis (Am J Respir Cell Mol Biol. 2013 Aug; 49(2): 167-179; https://www.atsjournals.org/doi/full/10.1165/rcmb.2013-0094TR; PMID: 23526222). Systemic sclerosis (SSc) is manifested by vasculopathy, immune dysregulation and fibrosis of the skin and certain internal organs, especially lungs (Nat Commun. 2014; 5: 5797.; https://www.nature.com/articles/ncomms6797; PMID: 25504335). Friend leukemia integration 1 (Fli1) is a potent repressor of the type I collagen gene. […] Bleomycin was administered intra-tracheally to mice (0.4 mg/kg) and no drug was given during the inflammatory phase (8 days). […] IRS-1 is a component of the insulin signaling pathway which is involved in the increased collagen production by cells carrying the Fli1 deletion.

SARS-CoV-2 [7] = conditions: at effective anti-viral concentrations; Hela-ACE2 cells
SARS-CoV-2 [8] = test: microbe, parasite or virus in culture; conditions: for IC50: Severe acute respiratory syndrome coronavirus 2, HeLa-ACE2, read-out: IC50 inhibition of SARS-CoV-2 (viral plaques)
BTK C481S = BTK C481S (Homo sapiens, UniProt Q06187, C481S); test: BTK C481S in vitro inhibition; type: biochemical
Method: as §1, §2

SARS-CoV-2 [9] = test: microbe, parasite or virus in culture; type: cell-based; conditions: for EC50: read-out: Median Effective Dose; remark: listed apart in the source
[10] = read-out: IC50 inhibition PI3K gamma
[11] = read-out: IC50 based on SARS-CoV-2 viral loads in culture supernatant, 24 hrs post-infection
[12] = read-out: IC50 based on SARS-CoV-2 viral loads in culture supernatant, 48 hrs post-infection
[13] = Severe acute respiratory syndrome coronavirus 2, 24 h
[14] = Severe acute respiratory syndrome coronavirus 2, 48 h

PI3K gamma, sequence (P48736 whole entry): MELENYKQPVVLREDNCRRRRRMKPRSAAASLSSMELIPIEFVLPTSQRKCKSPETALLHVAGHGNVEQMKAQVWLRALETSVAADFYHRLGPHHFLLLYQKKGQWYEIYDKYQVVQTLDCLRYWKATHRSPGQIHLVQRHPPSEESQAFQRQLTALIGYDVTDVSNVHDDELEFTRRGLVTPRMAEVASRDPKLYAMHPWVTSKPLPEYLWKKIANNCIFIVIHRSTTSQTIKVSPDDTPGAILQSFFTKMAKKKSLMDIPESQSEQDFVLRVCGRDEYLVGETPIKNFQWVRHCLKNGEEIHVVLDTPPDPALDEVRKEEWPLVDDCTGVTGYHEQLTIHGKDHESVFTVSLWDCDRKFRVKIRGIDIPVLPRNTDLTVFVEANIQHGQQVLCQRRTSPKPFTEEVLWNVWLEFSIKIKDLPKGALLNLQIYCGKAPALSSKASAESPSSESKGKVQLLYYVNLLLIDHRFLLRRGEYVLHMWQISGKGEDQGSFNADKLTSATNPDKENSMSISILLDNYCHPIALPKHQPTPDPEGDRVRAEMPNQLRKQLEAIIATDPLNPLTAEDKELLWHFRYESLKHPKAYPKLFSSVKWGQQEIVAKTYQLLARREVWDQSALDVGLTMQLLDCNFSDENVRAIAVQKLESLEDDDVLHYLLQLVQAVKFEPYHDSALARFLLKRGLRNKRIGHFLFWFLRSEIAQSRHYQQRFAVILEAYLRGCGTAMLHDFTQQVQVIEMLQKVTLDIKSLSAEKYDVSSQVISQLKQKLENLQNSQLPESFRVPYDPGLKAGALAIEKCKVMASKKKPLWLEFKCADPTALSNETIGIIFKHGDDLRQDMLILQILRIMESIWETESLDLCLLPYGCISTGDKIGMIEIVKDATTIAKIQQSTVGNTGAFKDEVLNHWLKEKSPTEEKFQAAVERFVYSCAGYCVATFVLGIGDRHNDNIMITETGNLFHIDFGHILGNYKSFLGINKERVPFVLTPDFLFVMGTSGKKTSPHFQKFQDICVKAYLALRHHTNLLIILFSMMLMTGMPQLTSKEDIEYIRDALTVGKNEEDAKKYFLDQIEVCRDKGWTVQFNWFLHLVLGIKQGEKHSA
CDK6 cyclinD1, sequence (Q00534 whole entry): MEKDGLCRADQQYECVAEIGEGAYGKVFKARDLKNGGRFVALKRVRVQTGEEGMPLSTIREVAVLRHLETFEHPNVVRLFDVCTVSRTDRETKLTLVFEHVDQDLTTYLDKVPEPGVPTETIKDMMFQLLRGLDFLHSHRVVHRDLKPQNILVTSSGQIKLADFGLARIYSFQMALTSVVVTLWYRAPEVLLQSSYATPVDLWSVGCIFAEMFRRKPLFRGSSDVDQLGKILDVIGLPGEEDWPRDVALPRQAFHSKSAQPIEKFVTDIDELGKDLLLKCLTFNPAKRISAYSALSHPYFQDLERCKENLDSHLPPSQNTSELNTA
CDK6 cyclinD1, sequence (P24385 whole entry partner): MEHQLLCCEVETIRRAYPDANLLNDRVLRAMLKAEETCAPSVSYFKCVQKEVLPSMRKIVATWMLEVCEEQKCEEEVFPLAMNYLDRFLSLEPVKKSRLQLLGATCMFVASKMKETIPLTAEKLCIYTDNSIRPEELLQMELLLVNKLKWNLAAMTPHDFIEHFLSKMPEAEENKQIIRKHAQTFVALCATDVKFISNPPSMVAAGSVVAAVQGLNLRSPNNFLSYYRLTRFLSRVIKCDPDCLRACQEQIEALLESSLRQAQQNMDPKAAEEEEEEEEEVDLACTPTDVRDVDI
PI3K delta, sequence (O00329 whole entry): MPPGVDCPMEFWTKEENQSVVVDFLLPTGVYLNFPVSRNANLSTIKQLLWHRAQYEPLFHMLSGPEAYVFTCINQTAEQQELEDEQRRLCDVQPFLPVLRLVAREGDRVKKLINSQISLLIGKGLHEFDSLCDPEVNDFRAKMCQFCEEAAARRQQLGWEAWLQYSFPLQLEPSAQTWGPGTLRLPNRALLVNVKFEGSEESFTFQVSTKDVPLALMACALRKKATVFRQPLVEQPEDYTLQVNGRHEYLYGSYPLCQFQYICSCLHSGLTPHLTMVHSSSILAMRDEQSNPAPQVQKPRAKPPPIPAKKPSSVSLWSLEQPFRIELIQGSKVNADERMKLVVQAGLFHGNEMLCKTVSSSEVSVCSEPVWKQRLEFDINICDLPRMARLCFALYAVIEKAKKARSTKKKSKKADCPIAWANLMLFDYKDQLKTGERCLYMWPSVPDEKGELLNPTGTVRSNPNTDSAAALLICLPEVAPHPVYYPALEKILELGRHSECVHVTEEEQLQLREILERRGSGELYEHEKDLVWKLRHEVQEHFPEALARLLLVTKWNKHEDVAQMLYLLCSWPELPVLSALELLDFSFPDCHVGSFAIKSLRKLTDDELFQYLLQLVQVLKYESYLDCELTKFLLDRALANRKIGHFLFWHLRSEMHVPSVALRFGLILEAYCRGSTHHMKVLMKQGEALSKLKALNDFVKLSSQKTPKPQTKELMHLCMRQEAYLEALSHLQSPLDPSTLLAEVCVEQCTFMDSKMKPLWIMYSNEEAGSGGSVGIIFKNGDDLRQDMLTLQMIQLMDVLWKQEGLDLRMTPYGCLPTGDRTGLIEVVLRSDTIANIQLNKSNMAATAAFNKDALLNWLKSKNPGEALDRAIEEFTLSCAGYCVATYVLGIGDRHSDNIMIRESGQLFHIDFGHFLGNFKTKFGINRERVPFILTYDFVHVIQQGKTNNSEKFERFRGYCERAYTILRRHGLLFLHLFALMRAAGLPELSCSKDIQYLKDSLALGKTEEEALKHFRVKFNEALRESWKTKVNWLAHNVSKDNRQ
PI3K delta, sequence (P27986 whole entry partner): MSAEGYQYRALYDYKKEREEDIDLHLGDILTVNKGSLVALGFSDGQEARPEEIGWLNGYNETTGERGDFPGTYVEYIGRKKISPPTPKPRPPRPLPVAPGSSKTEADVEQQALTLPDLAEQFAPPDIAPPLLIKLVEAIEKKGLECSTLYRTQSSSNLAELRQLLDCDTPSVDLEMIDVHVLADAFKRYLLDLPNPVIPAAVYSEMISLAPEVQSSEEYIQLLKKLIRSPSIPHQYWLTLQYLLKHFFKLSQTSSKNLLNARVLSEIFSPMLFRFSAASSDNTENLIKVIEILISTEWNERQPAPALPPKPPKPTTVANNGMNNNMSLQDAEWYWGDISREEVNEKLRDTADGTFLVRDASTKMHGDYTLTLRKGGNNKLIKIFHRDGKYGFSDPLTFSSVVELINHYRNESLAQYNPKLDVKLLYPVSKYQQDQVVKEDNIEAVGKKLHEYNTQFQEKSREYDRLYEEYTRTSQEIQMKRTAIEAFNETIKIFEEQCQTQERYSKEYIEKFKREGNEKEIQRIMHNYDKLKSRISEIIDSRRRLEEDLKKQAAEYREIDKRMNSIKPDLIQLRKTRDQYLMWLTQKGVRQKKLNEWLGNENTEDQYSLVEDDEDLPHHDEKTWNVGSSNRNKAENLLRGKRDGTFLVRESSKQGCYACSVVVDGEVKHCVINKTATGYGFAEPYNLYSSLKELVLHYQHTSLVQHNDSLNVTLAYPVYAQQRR
CDK4 cyclinD1, sequence (P11802 whole entry): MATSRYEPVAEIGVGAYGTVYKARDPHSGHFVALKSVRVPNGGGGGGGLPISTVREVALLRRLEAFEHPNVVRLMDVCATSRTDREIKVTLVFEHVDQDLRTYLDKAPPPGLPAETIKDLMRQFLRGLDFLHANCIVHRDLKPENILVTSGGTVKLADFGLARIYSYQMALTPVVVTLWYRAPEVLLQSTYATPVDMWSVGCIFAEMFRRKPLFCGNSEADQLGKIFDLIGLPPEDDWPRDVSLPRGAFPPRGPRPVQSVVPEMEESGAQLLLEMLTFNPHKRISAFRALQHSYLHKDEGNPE
CDK4 cyclinD1, sequence (P24385 whole entry partner): as the sequence (P24385 whole entry partner) above
PI3K alpha, sequence (P42336 whole entry): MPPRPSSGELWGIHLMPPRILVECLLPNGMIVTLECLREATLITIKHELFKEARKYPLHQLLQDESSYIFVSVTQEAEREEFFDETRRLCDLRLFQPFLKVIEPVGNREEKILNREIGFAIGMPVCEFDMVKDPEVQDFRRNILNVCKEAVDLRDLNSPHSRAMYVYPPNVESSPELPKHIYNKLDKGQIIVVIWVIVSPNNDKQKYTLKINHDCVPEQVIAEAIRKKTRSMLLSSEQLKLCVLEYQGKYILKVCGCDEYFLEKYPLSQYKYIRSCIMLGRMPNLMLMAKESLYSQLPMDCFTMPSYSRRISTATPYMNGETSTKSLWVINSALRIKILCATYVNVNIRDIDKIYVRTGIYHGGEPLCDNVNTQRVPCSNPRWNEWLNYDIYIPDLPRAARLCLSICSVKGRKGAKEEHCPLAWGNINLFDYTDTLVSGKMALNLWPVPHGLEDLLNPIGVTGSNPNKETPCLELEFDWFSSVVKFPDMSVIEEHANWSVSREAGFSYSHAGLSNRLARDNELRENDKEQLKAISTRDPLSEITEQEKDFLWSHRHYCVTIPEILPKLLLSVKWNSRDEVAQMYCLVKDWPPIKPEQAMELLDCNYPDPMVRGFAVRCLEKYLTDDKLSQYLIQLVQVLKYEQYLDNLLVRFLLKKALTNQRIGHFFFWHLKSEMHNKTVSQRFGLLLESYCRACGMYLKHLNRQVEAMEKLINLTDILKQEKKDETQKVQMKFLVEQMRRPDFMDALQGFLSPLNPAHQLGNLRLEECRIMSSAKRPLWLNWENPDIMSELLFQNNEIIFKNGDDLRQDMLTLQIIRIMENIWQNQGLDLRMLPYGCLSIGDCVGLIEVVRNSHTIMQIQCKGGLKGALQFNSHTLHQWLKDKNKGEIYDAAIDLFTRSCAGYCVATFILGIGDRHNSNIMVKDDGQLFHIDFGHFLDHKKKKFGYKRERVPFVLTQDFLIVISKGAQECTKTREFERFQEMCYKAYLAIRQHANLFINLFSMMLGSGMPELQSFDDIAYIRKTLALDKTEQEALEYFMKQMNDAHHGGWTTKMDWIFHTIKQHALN
PI3K alpha, sequence (P27986 whole entry partner): as the sequence (P27986 whole entry partner) above

Structure (SMILES) | IC50 (CDK4 cyclinD1) | IC50 (PI3K delta) | IC50 (CDK6 cyclinD1) | IC50 (BRD4-1) | IC50 (PI3K gamma; [10]) | IC50 (Syk) | IC50 (PI3K alpha) | IC50 (BRD4-2) | IC50 (mTOR) | also measured
Cc1nn(-c2ccnc(Nc3ccc(-c4csc5c(=O)cc(N6CCOCC6)oc45)cc3)n2)cc1CN1CC(O)C1 [Compound 52] | 10000 to 45000 nM | 1000 to 10000 nM | < 500 nM | > 45000 nM | 10000 to 45000 nM | < 500 nM | 500 to 1000 nM | > 45000 nM | – | –
CN(C)C(=O)c1cc2cnc(Nc3ccc(-c4csc5c(=O)cc(N6CCOCC6)oc45)cc3)nc2n1C1CCCC1 [Compound 6] | < 500 nM | – | < 500 nM | – | 1000 to 10000 nM | – | – | – | 1000 to 10000 nM | –
CN(C)C(=O)c1cc2cnc(Nc3ccc(-c4csc5c(=O)cc(N6CCOCC6)oc45)nc3)nc2n1C1CCCC1 [Compound 7] | < 500 nM | – | < 500 nM | 10000 to 45000 nM | 10000 to 45000 nM | – | 1000 to 10000 nM | 1000 to 10000 nM | 1000 to 10000 nM | IC50 (PI3K beta): 10000 to 45000 nM
Cc1nn(-c2ccnc(Nc3ccc(-c4csc5c(=O)cc(N6CCOCC6)oc45)cc3)n2)cc1CN(C)C [Compound 57] | < 500 nM | 500 to 1000 nM | < 500 nM | 1000 to 10000 nM | 10000 to 45000 nM | < 500 nM | 500 to 1000 nM | 1000 to 10000 nM | – | –
O=c1cc(N2CCOCC2)oc2c(-c3ccc4c(c3)OCCO4)csc12 [Compound 0] | – | – | – | < 500 nM | – | – | – | 500 to 1000 nM | < 500 nM | IC50 (SARS-CoV-2 [1]; [11]): 1520 nM; IC50 (SARS-CoV-2 [1]; [12]): 1580 nM; IC50 (SARS-CoV-2 [2]; [13]): 1020 nM; IC50 (SARS-CoV-2 [2]; [14]): 3220 nM; EC50 (SARS-CoV-2 [3]; Severe acute respiratory syndrome coronavirus 2, VERO STAT1 KO Cells, 24 hours post-infection): 2620 nM; IC50 (SARS-CoV-2 [4]): 250 nM; IC50 (SARS-CoV-2 [5]; [13]): 1800 nM; IC50 (SARS-CoV-2 [5]; [14]): 4400 nM; IC50 (BTK): 10000 to 45000 nM; IC50 (PI3K gamma; IC50 inhibition PI3K gamma): < 500 nM; prevention of development of fibrosis (Masson Trichrome staining, tissue collagen content, Ashcroft score) [6]: remarkably effective in preventing the development of fibrosis; IC50 (PI3K beta): < 500 nM; cellular cytotoxicity (SARS-CoV-2 [7]): no cellular cytotoxicity is noted; inhibition at 2.4 µM (SARS-CoV-2 [8]; Severe acute respiratory syndrome coronavirus 2, HeLa-ACE2): 94%; IC50 (SARS-CoV-2 [8]): 900 nM; IC50 (BTK C481S): 10000 to 45000 nM; EC50 (SARS-CoV-2 [9]; Severe acute respiratory syndrome coronavirus 2, UNCN1T Cells, 24 hours post-infection): 1840 nM
Cc1nn(-c2ccnc(Nc3ccc(-c4csc5c(=O)cc(N6CCOCC6)oc45)cc3)n2)cc1CN(C)CCO [Compound 59] | 1000 to 10000 nM | 1000 to 10000 nM | 1000 to 10000 nM | 1000 to 10000 nM | 10000 to 45000 nM | 500 to 1000 nM | 1000 to 10000 nM | 1000 to 10000 nM | – | –
CCC(CC)COC(=O)[C@H](C)N[P@](=O)(OC[C@H]1O[C@@](C#N)(c2ccc3c(N)ncnn23)[C@H](O)[C@@H]1O)Oc1ccccc1 [Remdesivir, reference compound] | – | – | – | – | – | – | – | – | – | IC50 (SARS-CoV-2 [1]; [11]): 1060 nM; IC50 (SARS-CoV-2 [1]; [12]): 2750 nM; IC50 (SARS-CoV-2 [2]; [13]): 1030 nM; IC50 (SARS-CoV-2 [2]; [14]): 760 nM; EC50 (SARS-CoV-2 [3]; Severe acute respiratory syndrome coronavirus 2, Vero, 24 h): 533 nM; dose reduction index (DRI) (SARS-CoV-2 [3]; VERO-STAT1 KO cells at Fa 0.5): 2.35; IC50 (SARS-CoV-2 [4]): 220 nM; IC50 (SARS-CoV-2 [5]; [13]): 2240 nM; IC50 (SARS-CoV-2 [5]; [14]): 4600 nM; IC50 (SARS-CoV-2 [8]): 100 nM; EC50 (SARS-CoV-2 [9]; [13]): 272 nM; dose reduction index (DRI) (SARS-CoV-2 [9]; UNCN1T cells): 3.75
Cc1nn(-c2ccnc(Nc3ccc(-c4csc5c(=O)cc(N6CCNCC6)oc45)cc3)n2)cc1CN1CC(O)C1 [Compound 53] | 1000 to 10000 nM | 1000 to 10000 nM | < 500 nM | 10000 to 45000 nM | > 45000 nM | < 500 nM | 1000 to 10000 nM | > 45000 nM | – | –
